Results as given in ChEMBL document CHEMBL1201862, “PubChem BioAssay data set” (2004).
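Grown in 96-well plates, cells were treated for 48 hours with each compound at five concentrations. Insufficient inhibition: endpoint recorded as highest concentration tested. GI50 = concentration required for 50% inhibition of growth.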 Activity calls are given as the source filed them. Rule as the data show it: active = GI50 up to about 1.1 µM and inactive = higher.

Key:
Assay in all cases: NCI anticancer screen, dose series, 48 h
HCT-15 = system: HCT-15
XF498 = system: XF498
SK-MEL-28 = system: SK-MEL-28
DMS-273 = system: DMS-273
HT-29 = system: HT-29
HCC 2998 = system: HCC 2998
Malme-3M = system: Malme-3M
MDA-MB-435 = system: MDA-MB-435
SK-OV-3 = system: SK-OV-3
UACC-62 = system: UACC-62
K562 = system: K562
CCRF-CEM = system: CCRF-CEM
786-0 = system: 786-0
HOP-92 = system: HOP-92
DLD-1 = system: DLD-1
M14 = system: M14
NCI/ADR-RES = system: NCI/ADR-RES
SR = system: SR
MDA-MB-231 = system: MDA-MB-231
SF-539 = system: SF-539
SK-MEL-2 = system: SK-MEL-2
SNB-75 = system: SNB-75
T47D = system: T47D
U-251 = system: U-251
OVCAR-5 = system: OVCAR-5
CAKI-1 = system: CAKI-1
UACC-257 = system: UACC-257
LOX IMVI = system: LOX IMVI
A498 = system: A498
DMS-114 = system: DMS-114
SF-268 = system: SF-268
NCI-H23 = system: NCI-H23
HOP-62 = system: HOP-62
M19-MEL = system: M19-MEL
HOP-18 = system: HOP-18
SNB-78 = system: SNB-78
ACHN = system: ACHN
MCF7 = system: MCF7
RXF 393 = system: RXF 393
Hs-578T = system: Hs-578T
OVCAR-8 = system: OVCAR-8
OVCAR-4 = system: OVCAR-4
PC-3 = system: PC-3
UO-31 = system: UO-31
NCI-H522 = system: NCI-H522
COLO 205 = system: COLO 205
KM12 = system: KM12
SK-MEL-5 = system: SK-MEL-5
SF-295 = system: SF-295
KM-20L2 = system: KM-20L2
SN12C = system: SN12C
MOLT-4 = system: MOLT-4
SNB-19 = system: SNB-19
BT-549 = system: BT-549
TK-10 = system: TK-10
IGROV-1 = system: IGROV-1
DU-145 = system: DU-145
MDA-N = system: MDA-N
EKVX = system: EKVX
HL-60 = system: HL-60
RPMI-8226 = system: RPMI-8226
SW-620 = system: SW-620
OVCAR-3 = system: OVCAR-3
HCT-116 = system: HCT-116
LXFL 529 = system: LXFL 529
NCI-H460 = system: NCI-H460
A549 = system: A549

What does the source list for `COC1/C=C/O[C@@]2(C)Oc3c(C)c(O)c4c(O)c(cc(O)c4c3C2=O)NC(=O)/C(C)=C\C=C\[C@H](C)C(O)[C@@H](C)[C@@H](O)[C@@H](C)[C@H](OC(C)=O)[C@@H]1C` (some centres not stated)?
GI50 (HCT-15): 18.6 µM; GI50 (XF498): 14.8 µM (inactive); GI50 (SK-MEL-28): 22.5 µM (inactive); GI50 (DMS-273): 17.9 µM (inactive); GI50 (HT-29): 14.9 µM (inactive); GI50 (HCC 2998): 18.8 µM (inactive); GI50 (Malme-3M): 30.6 µM (inactive); GI50 (MDA-MB-435): 19.9 µM (inactive); GI50 (SK-OV-3): 110 µM (inactive); GI50 (UACC-62): 18.1 µM (inactive); GI50 (K562): 9.89 µM (inactive); GI50 (CCRF-CEM): 2.06 µM (inactive); GI50 (786-0): 15.2 µM (inactive); GI50 (HOP-92): 10.2 µM (inactive); GI50 (DLD-1): 10.1 µM (inactive); GI50 (M14): 16.1 µM (inactive); GI50 (NCI/ADR-RES): 32.4 µM (inactive); GI50 (SR): 6.15 µM (inactive); GI50 (MDA-MB-231): 23.3 µM (inactive); GI50 (SF-539): 25.9 µM (inactive); GI50 (SK-MEL-2): 13.8 µM (inactive); GI50 (SNB-75): 36.8 µM (inactive); GI50 (T47D): 17.7 µM (inactive); GI50 (U-251): 44.2 µM (inactive); GI50 (OVCAR-5): 38.5 µM (inactive); GI50 (CAKI-1): 37.9 µM (inactive); GI50 (UACC-257): 13 µM (inactive); GI50 (LOX IMVI): 14 µM (inactive); GI50 (A498): 38.2 µM (inactive); GI50 (DMS-114): 7.91 µM (inactive); GI50 (SF-268): 24.5 µM (inactive); GI50 (NCI-H23): 13.5 µM (inactive); GI50 (HOP-62): 117 µM (inactive); GI50 (M19-MEL): 12.1 µM (inactive); GI50 (HOP-18): 17.7 µM (inactive); GI50 (SNB-78): 32.8 µM (inactive); GI50 (ACHN): 19.4 µM (inactive); GI50 (MCF7): 10.2 µM (inactive); GI50 (RXF 393): 11.2 µM (inactive); GI50 (Hs-578T): 33 µM (inactive); GI50 (OVCAR-8): 18.7 µM (inactive); GI50 (OVCAR-4): 13.1 µM (inactive); GI50 (PC-3): 16 µM (inactive); GI50 (UO-31): 51.3 µM (inactive); GI50 (NCI-H522): 5.3 µM (inactive); GI50 (COLO 205): 2.65 µM (inactive); GI50 (KM12): 27.2 µM (inactive); GI50 (SK-MEL-5): 32.1 µM (inactive); GI50 (SF-295): 94.8 µM (inactive); GI50 (KM-20L2): 13.3 µM (inactive); GI50 (SN12C): 14.1 µM (inactive); GI50 (MOLT-4): 6.31 µM (inactive); GI50 (SNB-19): 82.2 µM (inactive); GI50 (BT-549): 18.5 µM (inactive); GI50 (TK-10): 20.1 µM (inactive); GI50 (IGROV-1): 22.7 µM (inactive); GI50 (DU-145): 24 µM (inactive); GI50 (MDA-N): 14.5 µM (inactive)

Which GI50 (HCT-15) does the source give for `COC(=O)/C(C)=C/[N+](=O)[O-]` here?
The GI50 was 13.5 µM.

What about the GI50 (XF498) of the same compound?
The GI50 was 14.3 µM (inactive).

What about the GI50 (EKVX) of the same compound?
The GI50 was 15.9 µM (inactive).

And the GI50 (DMS-273)?
Its GI50 is 17.8 µM (inactive).

What about the GI50 (HT-29) of the same compound?
The GI50 was 20.6 µM (inactive).

What about the GI50 (HL-60) of the same compound?
Its GI50 is 14.1 µM (inactive).

What about the GI50 (HCC 2998) of the same compound?
The GI50 was 17.3 µM (inactive).

And the GI50 (Malme-3M)?
Its GI50 is 17.3 µM (inactive).

What about the GI50 (SK-OV-3) of the same compound?
Its GI50 is 19.2 µM (inactive).

And the GI50 (UACC-62)?
The GI50 was 17.9 µM (inactive).

And the GI50 (K562)?
The GI50 was 3.4 µM (inactive).

And the GI50 (RPMI-8226)?
The GI50 was 2.77 µM (inactive).

What about the GI50 (CCRF-CEM) of the same compound?
Its GI50 is 2.59 µM (inactive).

What about the GI50 (786-0) of the same compound?
Its GI50 is 17.7 µM (inactive).

What about the GI50 (HOP-92) of the same compound?
Its GI50 is 9.53 µM (inactive).

And the GI50 (DLD-1)?
The GI50 was 1.93 µM (inactive).

And the GI50 (M14)?
Its GI50 is 15.7 µM (inactive).

What about the GI50 (SW-620) of the same compound?
Its GI50 is 5.38 µM (inactive).

What about the GI50 (SF-539) of the same compound?
Its GI50 is 18.8 µM (inactive).

And the GI50 (SK-MEL-2)?
Its GI50 is 19.7 µM (inactive).

And the GI50 (SNB-75)?
The GI50 was 16.3 µM (inactive).

What about the GI50 (U-251) of the same compound?
Its GI50 is 18.5 µM (inactive).

And the GI50 (OVCAR-5)?
The GI50 was 19.7 µM (inactive).

What about the GI50 (CAKI-1) of the same compound?
Its GI50 is 2.57 µM (inactive).

And the GI50 (UACC-257)?
The GI50 was 15.8 µM (inactive).

What about the GI50 (LOX IMVI) of the same compound?
Its GI50 is 18.7 µM (inactive).

What about the GI50 (A498) of the same compound?
Its GI50 is 23.3 µM (inactive).

What about the GI50 (DMS-114) of the same compound?
The GI50 was 18.2 µM (inactive).

What about the GI50 (SF-268) of the same compound?
The GI50 was 23.1 µM (inactive).

And the GI50 (NCI-H23)?
The GI50 was 19.8 µM (inactive).

What about the GI50 (HOP-62) of the same compound?
The GI50 was 25.4 µM (inactive).

And the GI50 (M19-MEL)?
Its GI50 is 17.4 µM (inactive).

What about the GI50 (HOP-18) of the same compound?
The GI50 was 18 µM (inactive).

What about the GI50 (OVCAR-3) of the same compound?
Its GI50 is 16 µM (inactive).

And the GI50 (SNB-78)?
The GI50 was 21.1 µM (inactive).

What about the GI50 (ACHN) of the same compound?
Its GI50 is 19.5 µM (inactive).

And the GI50 (HCT-116)?
Its GI50 is 8.04 µM (inactive).

What about the GI50 (RXF 393) of the same compound?
Its GI50 is 21.2 µM (inactive).

What about the GI50 (OVCAR-8) of the same compound?
The GI50 was 22.2 µM (inactive).

And the GI50 (OVCAR-4)?
Its GI50 is 17.5 µM (inactive).

What about the GI50 (UO-31) of the same compound?
Its GI50 is 18.9 µM (inactive).

What about the GI50 (COLO 205) of the same compound?
The GI50 was 4.67 µM (inactive).

And the GI50 (KM12)?
Its GI50 is 18.5 µM (inactive).

And the GI50 (SK-MEL-5)?
The GI50 was 23 µM (inactive).

What about the GI50 (SF-295) of the same compound?
Its GI50 is 16.6 µM (inactive).

And the GI50 (KM-20L2)?
Its GI50 is 25 µM (inactive).

What about the GI50 (SN12C) of the same compound?
Its GI50 is 20.7 µM (inactive).

What about the GI50 (MOLT-4) of the same compound?
The GI50 was 11 µM (inactive).

And the GI50 (LXFL 529)?
Its GI50 is 14 µM (inactive).

What about the GI50 (SNB-19) of the same compound?
The GI50 was 17.1 µM (inactive).

And the GI50 (NCI-H460)?
The GI50 was 22.2 µM (inactive).

And the GI50 (TK-10)?
Its GI50 is 16.3 µM (inactive).

What about the GI50 (IGROV-1) of the same compound?
The GI50 was 20.9 µM (inactive).

And the GI50 (A549)?
Its GI50 is 21.7 µM (inactive).
